# According to patent US9663473B2 (Actelion Pharmaceuticals Ltd, priority 2013, dated 2017):
# Target: T1, recombinant human ALX receptor (Homo sapiens, UniProt P25090)
# T1 construct: expressed in transfected cells; host or cells: HEK293 (HEK293-hALXR-Gα16)
# T1 sequence (P25090 1-351): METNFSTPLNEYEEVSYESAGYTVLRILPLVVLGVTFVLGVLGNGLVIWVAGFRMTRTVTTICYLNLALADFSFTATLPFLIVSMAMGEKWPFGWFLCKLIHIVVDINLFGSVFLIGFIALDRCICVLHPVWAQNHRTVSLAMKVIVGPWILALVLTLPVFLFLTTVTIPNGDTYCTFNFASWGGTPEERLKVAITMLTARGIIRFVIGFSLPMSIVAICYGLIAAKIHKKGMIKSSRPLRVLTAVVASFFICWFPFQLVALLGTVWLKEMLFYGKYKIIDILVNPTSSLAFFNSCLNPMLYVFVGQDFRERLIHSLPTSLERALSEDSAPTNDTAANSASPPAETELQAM
# Assay: Intracellular calcium measurements (FLIPR), ALX receptor agonistic activity
# Assay type: cell-based
# Details: HEK293-hALXR-Gα16 cells, Fluo-4 calcium signal, normalized to WKYMVm 10 nM
# Procedure: The ALX receptor agonistic activity of the compounds of formula (I) is determined in accordance with the following experimental method.
# Intracellular Calcium Measurements:
# Cells expressing recombinant human ALX receptor and the G-protein Gα16 (HEK293-hALXR-Gα16) were grown to 80% confluency in Growing Medium (GM). Cells were detached from culture dishes with a cell dissociation buffer (Invitrogen, 13151-014), and collected by centrifugation at 1′000 rpm at rt for 5 min in Assay Buffer (AB) (equal parts of Hank's BSS (Gibco, 14065-049) and DMEM without Phenol Red (Gibco, 11880-028)). After 60 min incubation at 37° C. under 5% CO2 in AB supplemented with 1 μM Fluo-4 (AM) (Invitrogen, F14202) and 20 mM HEPES (Gibco, 15630-056), the cells were washed and resuspended in AB. They were then seeded onto 384-well FLIPR assay plates (Greiner, 781091) at 50′000 cells in 70 μl per well and sedimented by centrifugation at 1′000 rpm for 1 min. Stock solutions of test compounds were made up at a concentration of 10 mM in DMSO, and serially diluted in AB to concentrations required for activation dose response curves. WKYMVm (Phoenix Peptides) was used as a reference agonist. A FLIPR Tetra instrument (Molecular Devices) was operated according to the manufacturer's standard instructions, adding 4 μl of test compound dissolved at 10 mM in DMSO and diluted prior to the experiment in assay buffer to obtain the desired final concentration. Changes in fluorescence were monitored before and after the addition of test compounds at lex=488 nm and lem=540 nm. Emission peak values above base level after compounds addition were exported after base line subtraction. Values were normalized to high-level control (WKYMVm compound, 10 nM final concentration) after subtraction of the base line value (AB addition).
row,Structure (SMILES),EC50
1,"COc1ccc(CC(NC(=O)NC23CCC(O)(CC2)CC3)c2nc3ccccc3[nH]2)cc1F (single isomer, unassigned; ent-1) [Example 257, 1-(1-(1H-Benzo[d]imidazol-2-yl)-2-(3-fluoro-4-methoxyphenyl)ethyl)-3-(4-hydroxybicyclo[2.2.2]octan-1-yl)urea (ent-1)]",2 nM
2,"O=C(NC(Cc1ccc(Br)c(F)c1)c1nc2ccccc2[nH]1)NC12CCC(O)(CC1)CC2 (single isomer, unassigned; ent-1) [Example 258, 1-(1-(1H-Benzo[d]imidazol-2-yl)-2-(4-bromo-3-fluorophenyl)ethyl)-3-(4-hydroxybicyclo[2.2.2]octan-1-yl)urea (ent-1)]",40 nM
3,"COc1cc(F)c(CC(NC(=O)NC23CCC(O)(CC2)CC3)c2nc3ccccc3[nH]2)c(F)c1 (single isomer, unassigned; ent-1) [Example 259, 1-(1-(1H-Benzo[d]imidazol-2-yl)-2-(2,6-difluoro-4-methoxyphenyl)ethyl)-3-(4-hydroxybicyclo[2.2.2]octan-1-yl)urea (ent-1)]",0.5 nM
4,"COc1ccc(CC(NC(=O)N[C@H]2CC[C@H](O)CC2)c2nc3ccc(F)cc3[nH]2)c(F)c1 (single isomer, unassigned; ent-1) [Example 260, 1-(1-(6-Fluoro-1H-benzo[d]imidazol-2-yl)-2-(2-fluoro-4-methoxyphenyl)ethyl)-3-(trans-4-hydroxycyclohexyl)urea (ent-1)]",0.4 nM
5,"COc1ccc(CC(NC(=O)NC23CCC(O)(CC2)CC3)c2nc3ccccc3[nH]2)c(F)c1 (single isomer, unassigned; ent-1) [Example 261, 1-(1-(1H-Benzo[d]imidazol-2-yl)-2-(2-fluoro-4-methoxyphenyl)ethyl)-3-(4-hydroxybicyclo[2.2.2]octan-1-yl)urea (ent-1)]",3.2 nM
6,"COc1ccc(CC(NC(=O)NC23CCC(O)(CC2)CC3)c2nc3ccc(F)cc3[nH]2)c(F)c1 (single isomer, unassigned; ent-1) [Example 263, 1-(1-(6-Fluoro-1H-benzo[d]imidazol-2-yl)-2-(2-fluoro-4-methoxyphenyl)ethyl)-3-(4-hydroxybicyclo[2.2.2]octan-1-yl)urea (ent-1)]",1.4 nM
7,"CC1(O)CCC(NC(=O)NC(Cc2ccc(Br)cc2F)c2nc3ccccc3[nH]2)CC1 (single isomer, unassigned; ent-1) [Example 264, 1-(1-(1H-Benzo[d]imidazol-2-yl)-2-(4-bromo-2-fluorophenyl)ethyl)-3-(trans-4-hydroxy-4-methylcyclohexyl)urea (ent-1)]",9 nM
8,"COc1ccc(CC(NC(=O)NC23CCC(O)(CC2)CC3)c2nc3ccccc3[nH]2)c(F)c1F (single isomer, unassigned; ent-1) [Example 266, 1-(1-(1H-Benzo[d]imidazol-2-yl)-2-(2,3-difluoro-4-methoxyphenyl)ethyl)-3-(4-hydroxybicyclo[2.2.2]octan-1-yl)urea (ent-1)]",3.3 nM
9,"COc1ccc(CC(NC(=O)NC2CCC(C)(O)CC2)c2nc3ccccc3[nH]2)cc1F (single isomer, unassigned; ent-1) [Example 308, 1-(1-(1H-Benzo[d]imidazol-2-yl)-2-(3-fluoro-4-methoxyphenyl)ethyl)-3-(trans-4-hydroxy-4-methylcyclohexyl)urea (ent-1)]",2.7 nM
10,"COc1ccc(CC(NC(=O)N[C@H]2CC[C@H](O)CC2)c2nc3ccccc3[nH]2)cc1F (single isomer, unassigned; ent-1) [Example 309, 1-(1-(1H-Benzo[d]imidazol-2-yl)-2-(3-fluoro-4-methoxyphenyl)ethyl)-3-(trans-4-hydroxycyclohexyl)urea (ent-1)]",3.7 nM
11,"COc1ccc(CC(NC(=O)NC2CCC(C)(O)CC2)c2nc3ccccc3[nH]2)c(F)c1 (single isomer, unassigned; ent-1) [Example 311, 1-(1-(1H-Benzo[d]imidazol-2-yl)-2-(2-fluoro-4-methoxyphenyl)ethyl)-3-(trans-4-hydroxy-4-methylcyclohexyl)urea (ent-1)]",3.6 nM
12,"COc1c(F)c(F)c(CC(NC(=O)N[C@H]2CC[C@H](O)CC2)c2nc3ccccc3[nH]2)c(F)c1F (single isomer, unassigned; ent-1) [Example 312, 1-(1-(1H-Benzo[d]imidazol-2-yl)-2-(2,3,5,6-tetrafluoro-4-methoxyphenyl)ethyl)-3-(trans-4-hydroxycyclohexyl)urea (ent-1)]",22 nM
13,"O=C(NC(Cc1ccc(Br)cc1F)c1nc2ccccc2[nH]1)N[C@H]1CC[C@H](O)CC1 (single isomer, unassigned; ent-1) [Example 313, 1-(1-(1H-Benzo[d]imidazol-2-yl)-2-(4-bromo-2-fluorophenyl)ethyl)-3-(trans-4-hydroxycyclohexyl)urea (ent-1)]",2.4 nM
14,"COc1cc(F)c(CC(NC(=O)N[C@H]2CC[C@H](O)CC2)c2nc3ccccc3[nH]2)c(F)c1 (single isomer, unassigned; ent-1) [Example 316, 1-(1-(1H-Benzo[d]imidazol-2-yl)-2-(2,6-difluoro-4-methoxyphenyl)ethyl)-3-(trans-4-hydroxycyclohexyl)urea (ent-1)]",3.2 nM

# The next lines start with the values.
row,EC50,Structure (SMILES)
1,3.9 nM,"CC(F)(F)c1ccc(CC(NC(=O)N[C@H]2CC[C@H](O)CC2)c2nc3ccccc3[nH]2)cc1 (relative stereo) [Example 393, 1-(1-(1H-Benzo[d]imidazol-2-yl)-2-(4-(1,1-difluoroethyl)phenyl)ethyl)-3-(trans-4-hydroxycyclohexyl)urea]"
2,6.4 nM,"COc1ccc(C(C)C(NC(=O)N[C@H]2CC[C@H](O)CC2)c2nc3ccccc3[nH]2)cc1 (relative stereo) [Example 395, 1-(1-(1H-Benzo[d]imidazol-2-yl)-2-(4-methoxyphenyl)propyl)-3-(trans-4-hydroxycyclohexyl)urea]"
3,26 nM,"COc1ccc(CC(NC(=O)N[C@H]2CC[C@H](O)CC2)c2nc3ccccc3[nH]2)c(C)c1 (relative stereo) [Example 396, 1-(1-(1H-Benzo[d]imidazol-2-yl)-2-(4-methoxy-2-methylphenyl)ethyl)-3-(trans-4-hydroxycyclohexyl)urea]"
4,0.8 nM,"COc1ccc(CC(NC(=O)N[C@H]2CC[C@H](O)CC2)c2nc3ccc(Br)cc3[nH]2)cc1 (relative stereo) [Example 424, 1-(1-(6-bromo-1H-benzo[d]imidazol-2-yl)-2-(4-methoxyphenyl)ethyl)-3-(trans-4-hydroxycyclohexyl)urea]"
5,374 nM,"COc1ccc(CC(NC(=O)N[C@H]2CC[C@H](O)CC2)c2nc3ncncc3[nH]2)cc1 (relative stereo) [Example 426, 1-(trans-4-hydroxycyclohexyl)-3-(2-(4-methoxyphenyl)-1-(7H-purin-8-yl)ethyl)urea]"
6,604 nM,"COc1ccc(CC(NC(=O)N[C@H]2CC[C@H](O)CC2)c2nc3cccnc3[nH]2)cc1 (relative stereo) [Example 427, 1-(1-(3H-imidazo[4,5-b]pyridin-2-yl)-2-(4-methoxyphenyl)ethyl)-3-(trans-4-hydroxycyclohexyl)urea]"
7,299 nM,"COc1ccc(CC(NC(=O)N[C@H]2CC[C@H](O)CC2)c2nc3ccncc3[nH]2)cc1 (relative stereo) [Example 428, 1-(1-(3H-imidazo[4,5-c]pyridin-2-yl)-2-(4-methoxyphenyl)ethyl)-3-(trans-4-hydroxycyclohexyl)urea]"
8,1.2 nM,"COc1ccc(CC(NC(=O)N[C@H]2CC[C@H](O)CC2)c2nc3ccc(F)cc3[nH]2)cc1F (single isomer, unassigned; ent-1) [Example 318, 1-(1-(6-Fluoro-1H-benzo[d]imidazol-2-yl)-2-(3-fluoro-4-methoxyphenyl)ethyl)-3-(trans-4-hydroxycyclohexyl)urea (ent-1)]"
9,1 nM,"COc1ccc(CC(NC(=O)NC23CCC(O)(CC2)CC3)c2nc3ccc(F)cc3[nH]2)cc1F (single isomer, unassigned; ent-1) [Example 319, 1-(1-(6-Fluoro-1H-benzo[d]imidazol-2-yl)-2-(3-fluoro-4-methoxyphenyl)ethyl)-3-(4-hydroxybicyclo[2.2.2]octan-1-yl)urea (ent-1)]"
10,5.5 nM,"COc1cc(F)c(CC(NC(=O)N[C@H]2CC[C@H](O)CC2)c2nc3ccccc3[nH]2)cc1F (single isomer, unassigned; ent-1) [Example 356, 1-(1-(1H-Benzo[d]imidazol-2-yl)-2-(2,5-difluoro-4-methoxyphenyl)ethyl)-3-(trans-4-hydroxycyclohexyl)urea (ent-1)]"
